In US20170355708A1, “POTASSIUM CHANNEL MODULATORS” (Cadent Therapeutics, Inc., priority 2016, published 2017):

Molecular target: T1, hSK2 channels (Homo sapiens, UniProt P0DP23+Q9H2S1)
T1 construct: expressed in transfected cells; host or cells: HEK293
Test: Whole-cell patch-clamp recording of SK2 channel current (SC100)
Format: cell-based
Details: Stimulating Concentration required for increasing the baseline current by 100%; HEK293 cells expressing hSK2; Table 3
In short: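 Whole-cell patch-clamp recording of SK2 current in HEK293 cells expressing hSK2 channels. SC100 is the concentration increasing baseline current by 100%.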

**Q.** For `Cc1cc(C)n(-c2nc(Nc3ccc(F)cc3F)cc(N3CCNC(C(N)=O)C3)n2)n1` (stereo not shown) [Compound 115, 4-(6-((2,4-difluorophenyl)amino)-2-(3,5-dimethyl-1H-pyrazol-1-yl)pyrimidin-4-yl)piperazine-2-carboxamide], which “SC100 uM” value is on record?
**A.** ++ (++ means 200 nM-1000 nM)

**Q.** With `CC(O)c1ccn(-c2nc(Nc3ccc(Cl)cc3)cc(N3CC4(COC4)C3)n2)n1` (stereo not shown) [Compound 150, 1-(1-(4-((4-chlorophenyl)amino)-6-(2-oxa-6-azaspiro[3.3]heptan-6-yl)pyrimidin-2-yl)-1H-pyrazol-3-yl)ethan-1-ol] as the molecule, how does the “SC100 uM” value read?
**A.** ++ (++ means 200 nM-1000 nM)

**Q.** How did the “SC100 uM” value turn out when `Cc1cc(C)n(-c2cc(N3CCNC(C(N)=O)C3)nc(Nc3ccc(F)c(F)c3)n2)n1` (stereo not shown) [Compound 116, 4-(2-((3,4-difluorophenyl)amino)-6-(3,5-dimethyl-1H-pyrazol-1-yl)pyrimidin-4-yl)piperazine-2-carboxamide] was run?
**A.** +++ (+++ means <200 nM)

**Q.** How did the “SC100 uM” value turn out when `Fc1ccc(Nc2cc(N3CCOCC3)nc(-n3ccc(C(F)F)n3)n2)cc1` [Compound 158, 2-(3-(difluoromethyl)-1H-pyrazol-1-yl)-N-(4-fluorophenyl)-6-morpholinopyrimidin-4-amine] was run?
**A.** +++ (+++ means <200 nM)

**Q.** Which “SC100 uM” value does the source give for `Cc1cc(C)n(Cc2cc(Nc3ccc(F)cc3)nc(-n3ccc(CO)n3)c2)n1` [Compound 169, (1-(4-((3,5-dimethyl-1H-pyrazol-1-yl)methyl)-6-((4-fluorophenyl)amino)pyridin-2-yl)-1H-pyrazol-3-yl)methanol] here?
**A.** + (+ means >1 uM)

Same assay, conditions: Stimulating Concentration required for increasing the baseline current by 100%; HEK293 cells expressing hSK2; Table 4

**Q.** With `Cc1cc(C)n(-c2nc(Nc3cccc(C(F)(F)F)c3)cc(C(C)O)n2)n1` (stereo not shown) [IN10973-007-P1] as the molecule, how does the “SC100 (μM)” value read?
**A.** +++ (+++ means <200 nM)

**Q.** `Cc1ccn(-c2cc(CN3CCCC3=O)cc(Nc3ccc(Cl)cc3)n2)n1` [NSSy5701, 1-((2-((4-chlorophenyl)amino)-6-(3-methyl-1H-pyrazol-1-yl)pyridin-4-yl)methyl) pyrrolidin-2-one] was tested. Which “SC100 (μM)” value did it give?
**A.** +++ (+++ means <200 nM)
